# Reference: patent US9802897B2, “Amidopyridinol derivative or pharmaceutically acceptable salt thereof and pharmaceutical composition comprising same as active component” (Research Cooperation Foundation of Yeungnam University, priority 2013, dated 2017)
# System: TNBS-induced colitis
# Assay: TNBS-induced colitis model of inflammatory bowel disease
# Format: in vivo, rat (Sprague Dawley)
# Description: To see alleviating effects of the compounds of the present invention on colitis, an animal model induced by TNBS and having colitis was used for the experiments. The animal used herein was a 7 to 8 week Sprague Dawley species purchased from Samtaco Bio Korea. After the purchase, the animal was stabilized with typical solid feed for 2 days before being used for the experiments. The animal was freely supplied with feed and water during the experiments, and stayed in conditions maintaining a cage temperature of about 25±1° C. and relative humidity of about 50±10%. The cage was equipped with an automatic lightening system to adjust 12-hour light-dark cycle.
# In regard to the experimental groups, 5 groups (i.e., a control group, a group administered with TNBS only, […], […], […]) were used according to the randomized block design, wherein each group consists of 6 rats having an average weight of about 180±10 g. The rats that had been fasting for 24 hours were anesthetized with diethylether (Et2O), and then, a 1 mL syringe connected with a polyethylene catheter was used to slowly inject 0.8 mL of 3% TNBS into colonic enema through the anus, wherein TNBS was diluted with 50% (v/v) ethanol. To prevent leakage of 3% TNBS from the anus, the rats turned upside down and let stand for 60 minutes.
# In regard to the control group, only a vehicle (50% (v/v) ethanol) was injected into the rats of the control group in the same manner as in preparation of other experimental groups. To examine the effects of the drug, after being fasting for 24 hours, the rats were administered with drugs, i.e., 0.1 mg/kg or 1.0 mg/kg of Compounds 8a and 8j, once a day at a certain time from the second day to the fifth day of the TNBS treatment. As a comparative experimental material, 5-ASA, which is an active metabolite of sulfasalazine that is the most well-known as a therapeutic agent for IBDs, was used as a positive control group.
# All the rats were scarified on the seventh day of the TNBS administration. […] After the large intestine of the rat was harvested, a 5 to 6 cm-long tissue from was cut from the anus to a size of 1 cm, and then, subjected to measure an intestine weight and activation of myeloperoxidase (MPO) in the tissue, and to perform a biopsy. In addition, changes in weight of all the animals used in the experiments were observed by using a digital mass meter, beginning from the fasting step, the TNBS administration, and the drug administration. In consideration of the management and use of laboratory animals, the animal experiments were followed according to institutional guidelines from Laboratory Animal Resources, Yeungnam University.
# To measure the activation of MPO, an MPO assay was used. The colorectal tissue was washed with cold PBS, and a weight thereof was measured. Then, 200 μL of lysis buffer (pH7.4, 200 mM NaCl, 5 mM EDTA, 10 mM Tris, 10% glycerol) was added for each 10 mg of the weight of the tissue, and then, the tissue homogenizer (Bio homogenizer M133, BIOSPEC PRODUCTS Inc. USA) was used for 30 seconds in terms of homogenization. The homogenized sample was subjected to centrifugation (1500×g) twice, each for 15 minutes. The supernatant obtained therefrom was used to measure the activation of MPO by using the MPO ELISA kit (HK210, Hycult Biotechnology, Netherlands). 100 μL of the supernatant was added to the 96-well plates, each of which well was coated with an anti-mouse MPO antibody, to allow a reaction at room temperature for 1 hour, followed by being washed with PBS three times. Here, 100 μL of a reconstituted tracer was added thereto to allow a reaction at room temperature for 1 hour, followed by being washed three times repeatedly. Then, 100 μL of a reptavidin-peroxidase conjugate was added thereto to allow a reaction at room temperature for 1 hours, followed being washed. Then, 100 μL of a TMB substrate solution was added thereto to allow a reaction for 30 minutes. […]
smiles,measurement,setting,value
"CC(=O)Nc1nc(C)c(O)c(C)c1C [Compound 8a, N-(5-hydroxy-3,4,6-trimethylpyridine-2-yl)acetamide]",changes in weights of the rat,"1.0 mg/kg once a day, TNBS-induced rats",excellent recovery of the weight compared to the group treated with 5-ASA
same,conditions of the large intestine observed with the naked eye,"1.0 mg/kg, TNBS-induced rats",excellent inhibitory effects on swelling and congestion
same,weight of the large intestine,"1.0 mg/kg, vs TNBS-treated group",significantly decreased
same,activation of myeloperoxidase (MPO) in colorectal tissue,"1.0 mg/kg, vs group treated with TNBS only",lower activation of MPO
